Test results published in patent publication US10751339B2, “Substituted aminopyrimidine compounds and methods of use” (SUNSHINE LAKE PHARMA CO., LTD., priority 2018, dated 2020).

Columns and labels:
[1] = Compound stability in human liver microsomes; type: in vitro ADME; conditions: pH 7.4; for CLint scaled at 5 μM: liver microsomes, in vivo CLint extrapolated from human liver microsome incubation; for half-life at 5 μM: human liver microsomes 0.5 mg protein/mL, compound 5 μM, NADPH, 37° C., read-out: Human T1/2
Experimental: (§1) Human or rat liver microsomes incubations were conducted in duplicate in polypropylene tubes. The typical incubation mixtures consisted of human or rat liver microsomes (0.5 mg protein/mL), compounds of interest (5 μM) and NADPH (1.0 mM) in a total volume of 200 μL potassium phosphate buffer (PBS, 100 mM, pH 7.4). Compounds were dissolved in DMSO and diluted with PBS such that the final concentration of DMSO was 0.05%. The enzymatic reactions were commenced with the addition of protein after a 3-min preincubation and incubated in a water bath open to the air at 37° C. Reactions were terminated at various time points (0, 5, 10, 15, 30, 60 min) by adding equal volume of ice-cold acetonitrile. The samples were stored at −80° C. until LC/MS/MS assays.
(§2) The concentrations of compounds in the incubation mixtures of human or rat liver microsomes were determined by a LC/MS/MS method. The ranges of the linearity in the concentration range were determined for each tested compounds.
(§3) A parallel incubation was performed using denatured microsomes as the negative control, and reactions were terminated at various time points (0, 15, 60 min) after incubation at 37° C.
(§4) Dextromethorphan (70 μM) was selected as the positive control, and reactions were terminated at various time points (0, 5, 10, 15, 30, 60 min) after incubation at 37° C. Both positive and negative control samples were included in each assay to ensure the integrity of the microsomal incubation system.
(§5) The concentrations of compounds in human or rat liver microsome incubations were plotted as a percentage of the relevant zero time point control for each reaction.

[2] = Compound stability in rat liver microsomes; type: in vitro ADME; conditions: pH 7.4; for CLint scaled at 5 μM: liver microsomes, in vivo CLint extrapolated from rat liver microsome incubation; for half-life at 5 μM: rat liver microsomes 0.5 mg protein/mL, compound 5 μM, NADPH, 37° C., read-out: Rat T1/2
Experimental: as §1, §2, §3, §4, §5

PI3K (p110α/p85α) (h) = PI3K (p110α/p85α) (h) (Homo sapiens (Human), UniProt P42336); assay: PI3K (p110α/p85α) (h) non-radioactive HTRF kinase assay; type: biochemical
Chain of PI3K (p110α/p85α) (h) (P42336 whole entry, the tested form may be a part): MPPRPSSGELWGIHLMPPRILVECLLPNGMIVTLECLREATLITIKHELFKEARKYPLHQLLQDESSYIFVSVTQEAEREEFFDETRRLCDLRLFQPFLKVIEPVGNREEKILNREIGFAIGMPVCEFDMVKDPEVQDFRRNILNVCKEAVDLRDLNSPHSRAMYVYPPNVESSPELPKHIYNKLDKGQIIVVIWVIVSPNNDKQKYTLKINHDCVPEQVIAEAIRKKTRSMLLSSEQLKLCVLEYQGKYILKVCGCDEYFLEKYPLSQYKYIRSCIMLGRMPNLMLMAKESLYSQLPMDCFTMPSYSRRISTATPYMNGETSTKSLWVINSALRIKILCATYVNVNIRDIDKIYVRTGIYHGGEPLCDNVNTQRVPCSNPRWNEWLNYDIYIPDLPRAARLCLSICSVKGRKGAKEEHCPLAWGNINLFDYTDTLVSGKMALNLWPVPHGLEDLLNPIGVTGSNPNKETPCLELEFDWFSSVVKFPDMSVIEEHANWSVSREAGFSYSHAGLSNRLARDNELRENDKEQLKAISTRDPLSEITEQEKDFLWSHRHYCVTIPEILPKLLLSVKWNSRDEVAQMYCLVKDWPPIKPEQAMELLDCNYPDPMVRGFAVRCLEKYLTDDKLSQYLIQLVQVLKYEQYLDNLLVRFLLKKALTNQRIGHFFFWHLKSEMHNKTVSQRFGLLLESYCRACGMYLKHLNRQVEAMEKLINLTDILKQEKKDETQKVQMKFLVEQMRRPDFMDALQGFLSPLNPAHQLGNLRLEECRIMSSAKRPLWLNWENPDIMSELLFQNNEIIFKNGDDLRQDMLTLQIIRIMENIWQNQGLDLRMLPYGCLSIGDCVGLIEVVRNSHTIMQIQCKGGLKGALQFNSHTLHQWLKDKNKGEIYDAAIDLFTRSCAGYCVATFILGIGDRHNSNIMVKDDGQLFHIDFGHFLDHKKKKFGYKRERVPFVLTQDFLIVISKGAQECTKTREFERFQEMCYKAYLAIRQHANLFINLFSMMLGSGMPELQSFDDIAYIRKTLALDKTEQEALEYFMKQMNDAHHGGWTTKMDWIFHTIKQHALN
Chain of PI3K (p110α/p85α) (h) (P27986 whole entry partner, the tested form may be a part): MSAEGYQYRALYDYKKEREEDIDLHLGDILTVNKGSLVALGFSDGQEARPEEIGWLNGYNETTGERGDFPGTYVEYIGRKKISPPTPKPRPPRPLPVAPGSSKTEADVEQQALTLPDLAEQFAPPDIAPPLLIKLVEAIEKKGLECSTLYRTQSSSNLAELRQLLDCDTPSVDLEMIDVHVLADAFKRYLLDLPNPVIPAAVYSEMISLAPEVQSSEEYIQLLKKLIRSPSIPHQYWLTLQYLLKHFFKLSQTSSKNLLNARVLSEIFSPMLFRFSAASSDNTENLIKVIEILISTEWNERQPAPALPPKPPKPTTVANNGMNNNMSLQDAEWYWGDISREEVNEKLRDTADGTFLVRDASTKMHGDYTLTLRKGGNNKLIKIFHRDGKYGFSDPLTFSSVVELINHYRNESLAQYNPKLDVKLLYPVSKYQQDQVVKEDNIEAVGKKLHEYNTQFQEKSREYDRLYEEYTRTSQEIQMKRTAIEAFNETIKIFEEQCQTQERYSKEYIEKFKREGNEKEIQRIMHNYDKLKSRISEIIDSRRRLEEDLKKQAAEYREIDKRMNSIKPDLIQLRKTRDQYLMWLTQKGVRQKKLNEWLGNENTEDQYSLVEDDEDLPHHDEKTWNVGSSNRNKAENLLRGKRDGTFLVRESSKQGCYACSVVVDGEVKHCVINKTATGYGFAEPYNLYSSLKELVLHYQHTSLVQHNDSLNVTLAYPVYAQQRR
Experimental: (§6) PI3K (p110α/p85α) (h) is incubated in assay buffer containing 10 μM phosphatidylinositol 4,5-bisphosphate and MgATP (concentration as required). The reaction is initiated by the addition of the ATP solution. After incubation for 30 minutes at room temperature, the reaction is stopped by the addition of stop solution containing EDTA and biotinylated phosphatidylinositol-3,4,5-trisphosphate. Finally, detection buffer is added, which contains europium-labelled anti-GST monoclonal antibody, GST-tagged GRP1 PH domain and streptavidin allophycocyanin. The plate is then read in timeresolved fluorescence mode and the homogenous time-resolved fluorescence (HTRF) signal is determined according to the formula HTRF=10000×(Em665 nm/Em620 nm).
(§7) The kinase assays described herein were performed at Millipore UK Ltd, Dundee Technology Park, Dundee DD2 1SW, UK.

PI3K (p110β/p85α) (h) = PI3K (p110β/p85α) (h) (Homo sapiens (Human), UniProt P42338); assay: PI3K (p110β/p85α) (h) non-radioactive HTRF kinase assay; type: biochemical
Chain of PI3K (p110β/p85α) (h) (P42338 whole entry): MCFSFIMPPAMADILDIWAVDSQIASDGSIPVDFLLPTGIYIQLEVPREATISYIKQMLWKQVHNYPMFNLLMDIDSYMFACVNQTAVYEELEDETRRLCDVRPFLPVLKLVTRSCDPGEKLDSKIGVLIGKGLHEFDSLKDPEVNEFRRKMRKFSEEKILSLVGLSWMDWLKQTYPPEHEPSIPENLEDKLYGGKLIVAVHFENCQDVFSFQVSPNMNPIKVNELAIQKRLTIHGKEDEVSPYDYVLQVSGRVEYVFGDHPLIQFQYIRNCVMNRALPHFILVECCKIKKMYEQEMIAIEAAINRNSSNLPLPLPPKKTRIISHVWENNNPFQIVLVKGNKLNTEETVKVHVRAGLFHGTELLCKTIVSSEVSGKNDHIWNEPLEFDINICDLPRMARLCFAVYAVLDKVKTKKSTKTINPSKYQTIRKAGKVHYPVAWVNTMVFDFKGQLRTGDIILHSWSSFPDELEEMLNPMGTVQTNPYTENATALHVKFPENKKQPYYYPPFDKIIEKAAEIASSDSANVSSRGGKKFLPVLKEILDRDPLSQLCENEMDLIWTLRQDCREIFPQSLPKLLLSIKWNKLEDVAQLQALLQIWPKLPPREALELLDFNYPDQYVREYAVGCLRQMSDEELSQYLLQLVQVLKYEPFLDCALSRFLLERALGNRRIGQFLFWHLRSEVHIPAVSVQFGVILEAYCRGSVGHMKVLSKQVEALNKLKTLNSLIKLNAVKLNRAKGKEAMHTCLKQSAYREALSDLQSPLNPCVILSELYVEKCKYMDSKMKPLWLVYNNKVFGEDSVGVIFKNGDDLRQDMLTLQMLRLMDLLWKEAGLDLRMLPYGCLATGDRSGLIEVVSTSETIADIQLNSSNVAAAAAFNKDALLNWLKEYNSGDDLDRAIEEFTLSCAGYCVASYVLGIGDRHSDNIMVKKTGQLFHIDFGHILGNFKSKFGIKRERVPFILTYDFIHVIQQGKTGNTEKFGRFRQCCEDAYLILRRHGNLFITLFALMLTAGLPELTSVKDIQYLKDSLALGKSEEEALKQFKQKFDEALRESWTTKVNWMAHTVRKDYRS
Chain of PI3K (p110β/p85α) (h) (P27986 whole entry partner): as the sequence (P27986 whole entry partner, the tested form may be a part) above
Experimental: as §6, with “(p110β/p85α)” for “(p110α/p85α)”, “phosphatidylinositol-4,5-bisphosphate” for “phosphatidylinositol 4,5-bisphosphate”, “MgATP mix.” for “ATP solution.”, “streptavidin-allophycocyanin.” for “streptavidin allophycocyanin.”
as §7

PI3K (p110δ/p85α) (h) = PI3K (p110δ/p85α) (h) (Homo sapiens (Human), UniProt O00329); assay: PI3K (p110δ/p85α) (h) non-radioactive HTRF kinase assay; type: biochemical
Chain of PI3K (p110δ/p85α) (h) (O00329 whole entry): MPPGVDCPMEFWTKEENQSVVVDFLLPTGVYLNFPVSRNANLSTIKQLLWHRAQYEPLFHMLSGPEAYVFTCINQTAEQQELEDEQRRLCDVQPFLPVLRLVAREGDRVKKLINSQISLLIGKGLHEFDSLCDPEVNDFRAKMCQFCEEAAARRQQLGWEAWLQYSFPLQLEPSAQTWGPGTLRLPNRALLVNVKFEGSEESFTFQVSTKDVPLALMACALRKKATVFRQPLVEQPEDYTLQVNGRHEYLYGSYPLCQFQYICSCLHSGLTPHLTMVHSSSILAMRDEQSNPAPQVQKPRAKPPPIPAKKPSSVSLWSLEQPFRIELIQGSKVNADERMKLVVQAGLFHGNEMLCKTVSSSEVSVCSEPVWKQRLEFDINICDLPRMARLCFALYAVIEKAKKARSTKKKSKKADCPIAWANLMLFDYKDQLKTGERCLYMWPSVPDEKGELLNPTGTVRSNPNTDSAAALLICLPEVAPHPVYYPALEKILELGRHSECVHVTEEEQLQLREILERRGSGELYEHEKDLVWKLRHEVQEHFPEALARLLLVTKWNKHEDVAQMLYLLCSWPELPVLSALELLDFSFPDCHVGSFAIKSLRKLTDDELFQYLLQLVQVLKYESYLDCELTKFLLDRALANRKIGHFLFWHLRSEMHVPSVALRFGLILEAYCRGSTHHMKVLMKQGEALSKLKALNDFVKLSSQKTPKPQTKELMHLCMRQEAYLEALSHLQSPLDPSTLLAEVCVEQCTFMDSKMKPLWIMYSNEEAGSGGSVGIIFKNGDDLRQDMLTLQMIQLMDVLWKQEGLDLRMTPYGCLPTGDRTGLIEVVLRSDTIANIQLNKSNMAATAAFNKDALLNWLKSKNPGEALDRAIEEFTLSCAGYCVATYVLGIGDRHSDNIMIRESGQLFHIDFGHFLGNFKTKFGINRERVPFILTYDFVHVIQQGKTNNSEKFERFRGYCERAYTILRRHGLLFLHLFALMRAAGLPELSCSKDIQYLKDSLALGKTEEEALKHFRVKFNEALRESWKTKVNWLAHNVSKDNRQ
Chain of PI3K (p110δ/p85α) (h) (P27986 whole entry partner): as the sequence (P27986 whole entry partner, the tested form may be a part) above
Experimental: as §6, with “(p110δ/p85α)” for “(p110α/p85α)”, “phosphatidylinositol-4, 5-bisphosphate” for “phosphatidylinositol 4,5-bisphosphate”, “MgATP mix.” for “ATP solution.”, “streptavidin-allophycocyanin.” for “streptavidin allophycocyanin.”
as §7

PI3K (p120γ) (h) = PI3K (p120γ) (h) (Homo sapiens (Human), UniProt P48736); assay: PI3K (p120γ) (h) non-radioactive HTRF kinase assay; type: biochemical
Chain of PI3K (p120γ) (h) (P48736 whole entry): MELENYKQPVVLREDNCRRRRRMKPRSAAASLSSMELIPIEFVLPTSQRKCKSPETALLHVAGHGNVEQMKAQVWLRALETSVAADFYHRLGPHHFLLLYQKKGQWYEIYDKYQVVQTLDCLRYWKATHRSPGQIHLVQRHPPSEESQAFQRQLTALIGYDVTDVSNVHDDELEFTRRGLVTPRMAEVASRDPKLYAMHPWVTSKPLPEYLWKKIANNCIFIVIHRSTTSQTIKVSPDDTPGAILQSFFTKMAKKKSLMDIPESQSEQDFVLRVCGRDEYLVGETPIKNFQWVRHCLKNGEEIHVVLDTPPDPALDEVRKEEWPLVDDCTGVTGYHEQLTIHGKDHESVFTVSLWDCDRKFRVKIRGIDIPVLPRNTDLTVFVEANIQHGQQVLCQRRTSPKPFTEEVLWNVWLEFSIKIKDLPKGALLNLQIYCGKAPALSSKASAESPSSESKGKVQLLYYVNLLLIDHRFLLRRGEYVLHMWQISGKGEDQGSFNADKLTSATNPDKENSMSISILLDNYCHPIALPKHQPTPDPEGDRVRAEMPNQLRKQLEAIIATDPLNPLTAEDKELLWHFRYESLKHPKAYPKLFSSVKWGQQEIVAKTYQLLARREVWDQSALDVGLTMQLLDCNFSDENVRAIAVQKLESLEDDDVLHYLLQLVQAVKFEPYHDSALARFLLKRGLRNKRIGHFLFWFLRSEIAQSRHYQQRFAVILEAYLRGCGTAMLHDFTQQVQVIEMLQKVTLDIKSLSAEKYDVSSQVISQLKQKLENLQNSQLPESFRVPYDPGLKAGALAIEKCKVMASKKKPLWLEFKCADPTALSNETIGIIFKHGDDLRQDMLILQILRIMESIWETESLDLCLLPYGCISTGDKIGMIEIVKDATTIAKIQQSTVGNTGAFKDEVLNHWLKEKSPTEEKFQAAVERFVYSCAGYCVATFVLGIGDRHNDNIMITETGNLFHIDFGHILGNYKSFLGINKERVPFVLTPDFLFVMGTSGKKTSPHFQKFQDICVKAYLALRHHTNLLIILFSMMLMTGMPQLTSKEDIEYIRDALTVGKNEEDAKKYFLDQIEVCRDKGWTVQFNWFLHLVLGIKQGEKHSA
Experimental: as §6, with “(p120γ)” for “(p110α/p85α)”, “phosphatidylinositol-4, 5-bisphosphate” for “phosphatidylinositol 4,5-bisphosphate”, “MgATP mix.” for “ATP solution.”, “streptavidin-allophycocyanin.” for “streptavidin allophycocyanin.”
as §7

[3] = Pharmacokinetic profiles in rats; type: in vivo, rat
Experimental: The compounds disclosed herein are assessed in pharmacokinetic studies in mice, rats, dogs or monkeys. The compounds are administered as a water solution, 2% HPMC+1% TWEEN®80 in water solution, 5% DMSO+5% solutol in saline, 4% MC suspension or capsule. For the intravenous administration, the animals are generally given at 1 or 2 mg/kg dose. For the oral (p.o.) dosing, mice and rats are generally given 5 or 10 mg/kg dose, and dogs and monkeys are generally given 10 mg/kg dose. The blood samples (0.3 mL) are drawn at 0.25, 0.5, 1.0, 2.0, 3.0, 4.0, 6.0, 8.0, 12 and 24 h time points or 0.083, 0.25, 0.5, 1.0, 2.0, 4.0, 6.0, 8.0 and 24 h time points and centrifuged at 3,000 or 4000 rpm for 2 to 10 min. The plasma solutions are collected, stored at −20° C. or −70° C. until analyzed by LC/MS/MS as described above.

CLint scaled at 5 μM [1]	half-life at 5 μM [1]	CLint scaled at 5 μM [2]	half-life at 5 μM [2]	IC50 (PI3K (p110α/p85α) (h))	IC50 (PI3K (p110β/p85α) (h))	IC50 (PI3K (p110δ/p85α) (h))	IC50 (PI3K (p120γ) (h))	clearance ([3]; iv dosing 1 mg/kg)	AUC(0-t) ([3]; rat, plasma, iv dosing 1 mg/kg)	half-life ([3]; rat, plasma, iv dosing 1 mg/kg)	Vd ([3]; rat, plasma, iv dosing 1 mg/kg, read-out: Vss)	bioavailability ([3]; rat, plasma, oral bioavailability)	Compound
20.8 mL/min/kg	83.7 min	28 mL/min/kg	88.7 min	2400 nM	1870 nM	17 nM	512 nM	–	–	–	–	–	Cc1noc(-c2c(N)ncnc2N[C@@H](C)c2nc3cccc(C#CC(C)O)c3c(=O)n2-c2ccccc2)n1 (stereo partly drawn) [Example 5, 2-((S)-1-((6-amino-5-(3-meth-1,2,4-oxadiazol-5-1)pyrimidin-4-1)amino)ethyl)-5-(3-hydroxybut-1-yn-1-yl)-3-phenylquinazolin-4(3H)-one]
80.5 mL/min/kg	21.6 min	85.2 mL/min/kg	29.2 min	460 nM	151 nM	2 nM	47 nM	–	–	–	–	–	CC#Cc1cccc2nc([C@H](C)Nc3ncnc(N)c3-c3nc(C)no3)n(-c3ccccc3)c(=O)c12 [Example 9, (S)-2-(1-((6-amino-5-(3-methyl-1,2,4-oxadiazol-5-yl)pyrimidin-4-yl)amino)ethyl)-3-phenyl-5-(prop-1-yn-1-yl)quinazolin-4(3H)-one]
–	–	–	–	2800 nM	548 nM	6 nM	340 nM	–	–	–	–	–	CC#Cc1cccc2nc([C@H](C)Nc3ncnc(N)c3-c3nnc(C)o3)n(-c3ccccc3)c(=O)c12 [Example 10, (S)-2-(1-((6-amino-5-(5-methyl-1,3,4-oxadiazol-2-yl)pyrimidin-4-yl)amino)ethyl)-3-phenyl-5-(prop-1-yn-1-yl)quinazolin-4(3H)-one]
150 mL/min/kg	11.6 min	213 mL/min/kg	11.7 min	1890 nM	582 nM	8 nM	15 nM	–	–	–	–	–	CC#Cc1cccc2nc([C@H](CC)Nc3ncnc(N)c3-c3nc(C)no3)n(-c3ccccc3)c(=O)c12 [Example 14, (S)-2-(1-((6-amino-5-(3-methyl-1,2,4-oxadiazol-5-yl)pyrimidin-4-yl)amino)propyl)-3-phenyl-5-(prop-1-yn-1-yl)quinazolin-4(3H)-one]
–	–	–	–	> 3000 nM	> 3000 nM	27 nM	704 nM	–	–	–	–	–	CC#Cc1cccc2nc([C@H](CC)Nc3ncnc(N)c3-c3nnc(C)o3)n(-c3ccccc3)c(=O)c12 [Example 15, (S)-2-(1-((6-amino-5-(5-methyl-1,3,4-oxadiazol-2-yl)pyrimidin-4-yl)amino)propyl)-3-phenyl-5-(prop-1-yn-1-yl)quinazolin-4(3H)-one]
72.2 mL/min/kg	24.1 min	88.8 mL/min/kg	28 min	> 3000 nM	119 nM	24 nM	77 nM	–	–	–	–	–	CC[C@H](Nc1ncnc(N)c1-c1nc(C)no1)c1nc2cccc(C#CCO)c2c(=O)n1C1CC1 [Example 29, (S)-2-(1-((6-amino-5-(3-methyl-1,2,4-oxadiazol-5-yl)pyrimidin-4-yl)amino)propyl)-3-cyclopropyl-5-(3-hydroxyprop-1-yn-1-yl)quinazolin-4(3H)-one]
–	–	–	–	1000 nM	104 nM	11 nM	118 nM	–	–	–	–	–	Cc1noc(-c2c(N)ncnc2N[C@@H](C)c2cc3cccc(C#CCO)c3c(=O)n2C2CC2)n1 [Example 33, (S)-3-(1-((6-amino-5-(3-methyl-1,2,4-oxadiazol-5-yl)-pyrimidin-4-yl)amino)ethyl)-2-cyclopropyl-8-(3-hydroxyprop-1-yn-1-yl)-isoquinolin-1 (2H)-one]
98.3 mL/min/kg	17.7 min	138 mL/min/kg	18 min	2660 nM	395 nM	10 nM	30 nM	–	–	–	–	–	CC[C@H](Nc1ncnc(N)c1-c1nc(C)no1)c1nc2cccc(C#CCO)c2c(=O)n1-c1ccccc1 [Example 36, (S)-2-(1-((6-amino-5-(3-methyl-1,2,4-oxadiazol-5-yl)pyrimidin-4-yl)amino)propyl)-5-(3-hydroxyprop-1-yn-1-yl)-3-phenylquinazolin-4(3H)-one]
–	–	–	–	704 nM	154 nM	5 nM	44 nM	–	–	–	–	–	Cc1noc(-c2c(N)ncnc2N[C@@H](C)c2cc3cccc(C#CCO)c3c(=O)n2-c2ccccc2)n1 [Example 40, (S)-3-(1-((6-amino-5-(3-methyl-1,2,4-oxadiazol-5-yl)pyrimidin-4-yl)amino)ethyl)-8-(3-hydroxyprop-1-yn-1-yl)-2-phenylisoquinolin-1 (2H)-one]
–	–	–	–	> 3000 nM	1600 nM	17 nM	349 nM	–	–	–	–	–	Cc1noc(-c2c(N)ncnc2N[C@@H](C)c2nc3ccc(F)c(C#CCO)c3c(=O)n2-c2ccccc2)n1 [Example 42, (S)-2-(1-((6-amino-5-(3-methyl-1,2,4-oxadiazol-5-yl)pyrimidin-4-yl)amino)ethyl)-6-fluoro-5-(3-hydroxyprop-1-yn-1-yl)-3-phenylquinazolin-4(3H)-one]
89.4 mL/min/kg	19.4 min	79.8 mL/min/kg	31.1 min	–	–	–	–	23 mL/min/kg	722 ng·h/mL	43.8 min	1.11 L/kg	70.8%	C#Cc1cccc2nc([C@H](C)Nc3ncnc(N)c3-c3nnn(C)n3)n(C3CC3)c(=O)c12 [Example 52, (S)-2-(1-((6-amino-5-(2-methyl-2H-tetrazol-5-yl)pyrimidin-4-yl)amino)ethyl)-3-cyclopropyl-5-ethynylquinazolin-4(3H)-one]
